Values after ≈ are worked out from the molar mass of the structure shown.
What was measured:
mold growth [1] = test: outdoor exposure test, preservation of acrylic latex paint (modified ASTM D-1006); parameters: key to mold growth rating, 4 Mo. / mold growth rating, 5 Mo. / mold growth rating, 8 Mo.: 1: No mold growth; 2: Trace, <5% growth; 3: Trace, 5-10% growth; 4: 10-25% growth; 25-50% growth; 6: 50-70% growth; 70-90% growth; 8: 90-95% growth; 9: 100% growth; 100% growth, severe; settings: for mold growth rating, 4 Mo.: 4 months outdoor; for mold growth rating, 5 Mo.: 5 months outdoor; for mold growth rating, 8 Mo.: 8 months outdoor; for mold growth rating, 10 Mo.: 10 months outdoor
Description: (§1) Using a modification of ASTM D-1006, clear sapwood ponderosa pine boards 1/2 inch × 6 inches × 36 inches were primed with an unpreserved alkyd coating. A single coat of paint (alkyd or acrylic latex) incorporating compound (I) was brush applied. The boards were then exposed to the elements at Lake Jackson, Texas, and periodically readings were taken using the following rating scale: […]

[2] = volatility determination, retention on glass fiber paper; assay type: physicochemical; settings: 50° C. oven for 7 days, average of duplicate determinations
Experimental: (§2) To determine volatility and water solubility of the compounds, the following procedure was used: A 0.1 g. portion of each compound was dissolved in 2.0 ml. acetone. One-half of this solution was placed on a dry, pre-weighed, 7 cm. diameter sheet of glass fiber paper (Reeve Angel #934AH). The fiber paper was allowed to air dry for 24 hours and was re-weighed to determine the amount (0.05 g.) of the compound present. The other half of the solution was used to impregnate similarly another sheet of glass fiber paper. For the volatility determination, one of the papers was placed in a 50° C. oven for 7 days, removed, air cooled for 24 hours, and weighed. The percent retention given in Table II was calculated by the following formula: [formula]

Rhizopus nigricans = test: conventional agar dilution test, 100% growth inhibition; assay type: cell-based; settings: Rhizopus stolonifer, read-out: Concentration for 100% Growth Inhibition
Description: (§3) In representative operations, the compounds of the present invention when tested for their activity as antimicrobials using conventional agar dilution tests give complete growth inhibition against C. albicans, T. mentagrophytes, C. pelliculosa, R. nigricans, C. ips, C. fragans and Trichoderma sp. 42. The following Table provides test data summaries in comparison with the activity of art compounds.

[3] = test system: Trichophyton mentagrophytes; test: as above; assay type: cell-based; settings: read-out: Concentration for 100% Growth Inhibition
Description: as §3

Candida pelliculosa = test: as above; assay type: cell-based; settings: Hansenula anomala, read-out: Concentration for 100% Growth Inhibition
Description: as §3

Pullularia pullulans = test: as above; assay type: cell-based; settings: read-out: Concentration for 100% Growth Inhibition
Description: as §3

Trichoderma species 42 = test: as above; assay type: cell-based; settings: Trichoderma species 42, agar dilution; read-out: Concentration for 100% Growth Inhibition
Description: as §3

Ceratocystis ips = test: as above; assay type: cell-based; settings: read-out: Concentration for 100% Growth Inhibition
Description: as §3

Candida albicans = test: as above; assay type: cell-based; settings: read-out: Concentration for 100% Growth Inhibition
Description: as §3

[4] = water-leachability determination, retention on glass fiber paper; assay type: physicochemical; settings: leached 8 hours, 20° C. water at 10 ml./sec., average of duplicate determinations
Experimental: as §2
For the water-leachability determination, the second impregnated paper was leached for 8 hours with 20° C. water running at 10 ml./sec. The fiber paper was allowed to air dry for 24 hours, then re-weighed. The percent retention was also calculated by the above formula. The figures recorded in following Table II represent the average of duplicate determinations.

Algae Spores = test: marine antifoulant activity, fouling of test panels; settings: Compound I 0.14 g. in panel, TBTO 0.13 g. in panel, seawater
Experimental: (§4) The compounds of this invention also repel or are toxic towards lower forms of marine life such as barnacles, and thereby function effectively as marine antifoulants. In evaluating marine antifoulant activity, a comparison of compound (I) vs. a standard antifouling toxicant, bis(tri-n-butyltin) oxide (TBTO), was carried out by treating pre-weighed 21/2 inch by 21/2 inch by 1/4 inch porous silica test panels with a solution of the individual compound in methyl isobutyl ketone, allowing the solvent to air dry to constant weight, and then immersing the panels in seawater at a subtropical location which has dense populations of fouling organisms. Under these conditions, an untreated panel became completely fouled after two months' exposure.

Hydroids = test: as above; settings: Compound I 0.14 g. in panel, TBTO 0.13 g. in panel, seawater
Experimental: as §4

Oysters = test: as above; settings: Compound I 0.14 g. in panel, TBTO 0.13 g. in panel, seawater
Experimental: as §4

Microfouling = test: as above; settings: Compound I 0.14 g. in panel, TBTO 0.13 g. in panel, seawater
Experimental: as §4

Encrusting Bryozoans = test: as above; settings: Compound I 0.14 g. in panel, TBTO 0.13 g. in panel, seawater
Experimental: as §4

Barnacles = test: as above; settings: Compound I 0.14 g. in panel, TBTO 0.13 g. in panel, seawater
Experimental: as §4

Algae = test: as above; settings: Compound I 0.14 g. in panel, TBTO 0.13 g. in panel, seawater
Experimental: as §4

Tunicates = test: as above; settings: Compound I 0.14 g. in panel, TBTO 0.13 g. in panel, seawater
Experimental: as §4

Tube Worms = test: as above; settings: Compound I 0.14 g. in panel, TBTO 0.13 g. in panel, seawater
Experimental: as §4

mold growth [5] = test: outdoor exposure test, preservation of alkyd paint (modified ASTM D-1006); parameters: key to mold growth rating, 8 Mo. / mold growth rating, 4 Mo. / mold growth rating, 5 Mo.: 1: No mold growth; 2: Trace, <5% growth; 3: Trace, 5-10% growth; 4: 10-25% growth; 25-50% growth; 6: 50-70% growth; 70-90% growth; 8: 90-95% growth; 9: 100% growth; 100% growth, severe; settings: for mold growth rating, 4 Mo.: 4 months outdoor; for mold growth rating, 5 Mo.: 5 months outdoor; for mold growth rating, 8 Mo.: 8 months outdoor; for mold growth rating, 10 Mo.: 10 months outdoor
Description: as §1

important fungi = test: fungicidal activity against important fungi; settings: in words

N#CSCOc1cc(Cl)c(Cl)cc1Cl [Compound I, Thiocyanic Acid, (2,4,5-Trichlorophenoxy)Methyl Ester]
mold growth rating, 4 Mo. (mold growth [1]; 0.5 wt. % (I)): 1
mold growth rating, 5 Mo. (mold growth [1]; 0.5 wt. % (I)): 1
mold growth rating, 8 Mo. (mold growth [1]; 0.5 wt. % (I)): 1
mold growth rating, 10 Mo. (mold growth [1]; 0.5 wt. % (I)): 2 (Trace, <5% growth)
mold growth rating, 4 Mo. (mold growth [1]; 1.0 wt. % (I)): 1
mold growth rating, 5 Mo. (mold growth [1]; 1.0 wt. % (I)): 1
mold growth rating, 8 Mo. (mold growth [1]; 1.0 wt. % (I)): 1
mold growth rating, 10 Mo. (mold growth [1]; 1.0 wt. % (I)): 2 (Trace, <5% growth)
Percent Retention, Volatility [2]: 74%
MIC (Rhizopus nigricans): 10 µg/mL (≈ 37.2 µM)
MIC [3]: 0.1 µg/mL (≈ 0.372 µM)
MIC (Candida pelliculosa): 10 µg/mL (≈ 37.2 µM)
MIC (Pullularia pullulans): 10 µg/mL (≈ 37.2 µM)
MIC (Trichoderma species 42): 10 µg/mL (≈ 37.2 µM)
MIC (Ceratocystis ips): 1 µg/mL (≈ 3.72 µM)
MIC (Candida albicans): 10 µg/mL (≈ 37.2 µM)
Percent Retention, Water Extraction [4]: 92%
Percent Fouling of Test Panels (Algae Spores): 30%
Percent Fouling of Test Panels (Hydroids): 0%
Percent Fouling of Test Panels (Oysters): 0%
Percent Fouling of Test Panels (Microfouling): 0%
Percent Fouling of Test Panels (Encrusting Bryozoans): 0%
Percent Fouling of Test Panels (Barnacles): 0%
Percent Fouling of Test Panels (Algae): 0%
Percent Fouling of Test Panels (Tunicates): 0%
Percent Fouling of Test Panels (Tube Worms): 0%
mold growth rating, 4 Mo. (mold growth [5]; 0.4 wt. % (I)): 9 (100% growth)
mold growth rating, 5 Mo. (mold growth [5]; 0.4 wt. % (I)): 9 (100% growth)
mold growth rating, 8 Mo. (mold growth [5]; 0.4 wt. % (I)): 1
mold growth rating, 10 Mo. (mold growth [5]; 0.4 wt. % (I)): 2 (Trace, <5% growth)
mold growth rating, 4 Mo. (mold growth [5]; 0.6 wt. % (I)): 8 (90-95% growth)
mold growth rating, 5 Mo. (mold growth [5]; 0.6 wt. % (I)): 9 (100% growth)
mold growth rating, 8 Mo. (mold growth [5]; 0.6 wt. % (I)): 1
mold growth rating, 10 Mo. (mold growth [5]; 0.6 wt. % (I)): 2 (Trace, <5% growth)
mold growth rating, 4 Mo. (mold growth [5]; 0.8 wt. % (I)): 4 (10-25% growth)
mold growth rating, 5 Mo. (mold growth [5]; 0.8 wt. % (I)): 3 (Trace, 5-10% growth)
mold growth rating, 8 Mo. (mold growth [5]; 0.8 wt. % (I)): 1
mold growth rating, 10 Mo. (mold growth [5]; 0.8 wt. % (I)): 2 (Trace, <5% growth)
mold growth rating, 4 Mo. (mold growth [5]; 1.0 wt. % (I)): 1
mold growth rating, 5 Mo. (mold growth [5]; 1.0 wt. % (I)): 1
mold growth rating, 8 Mo. (mold growth [5]; 1.0 wt. % (I)): 1
mold growth rating, 10 Mo. (mold growth [5]; 1.0 wt. % (I)): 2 (Trace, <5% growth)

N#CSCOc1ccc(Cl)cc1Cl [Compound V]
Percent Retention, Volatility [2]: 6%
MIC (Rhizopus nigricans): 10 µg/mL (≈ 42.7 µM)
MIC [3]: 1 µg/mL (≈ 4.27 µM)
MIC (Candida pelliculosa): 10 µg/mL (≈ 42.7 µM)
MIC (Pullularia pullulans): 10 µg/mL (≈ 42.7 µM)
MIC (Trichoderma species 42): 10 µg/mL (≈ 42.7 µM)
MIC (Ceratocystis ips): 10 µg/mL (≈ 42.7 µM)
MIC (Candida albicans): 100 µg/mL (≈ 427 µM)
Percent Retention, Water Extraction [4]: 52%

N#CSCOc1c(Cl)cc(Cl)c(Cl)c1Cl [II, Thiocyanic Acid, (2,3,4,6-Tetrachlorophenoxy)Methyl Ester]
Percent Retention, Volatility [2]: 49%
MIC (Rhizopus nigricans): 100 µg/mL (≈ 330 µM)
MIC [3]: 1 µg/mL (≈ 3.3 µM)
MIC (Candida pelliculosa): 10 µg/mL (≈ 33 µM)
MIC (Pullularia pullulans): 1 µg/mL (≈ 3.3 µM)
MIC (Trichoderma species 42): 1 µg/mL (≈ 3.3 µM)
MIC (Ceratocystis ips): 1 µg/mL (≈ 3.3 µM)
MIC (Candida albicans): 10 µg/mL (≈ 33 µM)
Percent Retention, Water Extraction [4]: 96%

N#CSCOc1ccc(Cl)cc1 [III]
Percent Retention, Volatility [2]: 2%
MIC (Rhizopus nigricans): 500 µg/mL (≈ 2500 µM)
MIC [3]: 100 µg/mL (≈ 501 µM)
MIC (Candida pelliculosa): 500 µg/mL (≈ 2500 µM)
MIC (Pullularia pullulans): 500 µg/mL (≈ 2500 µM)
MIC (Trichoderma species 42): 100 µg/mL (≈ 501 µM)
MIC (Ceratocystis ips): 500 µg/mL (≈ 2500 µM)
MIC (Candida albicans): 500 µg/mL (≈ 2500 µM)
Percent Retention, Water Extraction [4]: 80%

Cc1cc(OCSC#N)ccc1Cl [IV]
Percent Retention, Volatility [2]: 12%
MIC (Rhizopus nigricans): 500 µg/mL (≈ 2340 µM)
MIC [3]: 100 µg/mL (≈ 468 µM)
MIC (Candida pelliculosa): 500 µg/mL (≈ 2340 µM)
MIC (Pullularia pullulans): 500 µg/mL (≈ 2340 µM)
MIC (Trichoderma species 42): 100 µg/mL (≈ 468 µM)
MIC (Ceratocystis ips): 500 µg/mL (≈ 2340 µM)
MIC (Candida albicans): 500 µg/mL (≈ 2340 µM)
Percent Retention, Water Extraction [4]: 71%

CCC[CH2][Sn]([CH2]CCC)([CH2]CCC)[O][Sn]([CH2]CCC)([CH2]CCC)[CH2]CCC [TBTO, bis(tri-n-butyltin) oxide, reference compound]
Percent Fouling of Test Panels (Algae Spores): 20%
Percent Fouling of Test Panels (Hydroids): 0%
Percent Fouling of Test Panels (Oysters): 0%
Percent Fouling of Test Panels (Microfouling): 0%
Percent Fouling of Test Panels (Encrusting Bryozoans): 0%
Percent Fouling of Test Panels (Barnacles): 0%
Percent Fouling of Test Panels (Algae): 0%
Percent Fouling of Test Panels (Tunicates): 0%
Percent Fouling of Test Panels (Tube Worms): 0%

N#CSCOc1c(Cl)c(Cl)c(Cl)c(Cl)c1Cl [VI]
Percent Retention, Volatility [2]: 97%
MIC (Rhizopus nigricans): > 500 µg/mL
MIC [3]: 100 µg/mL (≈ 296 µM)
MIC (Candida pelliculosa): > 500 µg/mL
MIC (Pullularia pullulans): > 500 µg/mL
MIC (Trichoderma species 42): > 500 µg/mL
MIC (Ceratocystis ips): > 500 µg/mL
MIC (Candida albicans): > 500 µg/mL
Percent Retention, Water Extraction [4]: 98%

N#CSCOc1c(Cl)c(Cl)c(Cl)c(Cl)c1Cl [pentachloro-(thiocyanatomethoxy)- benzene]
fungicidal activity against important fungi, relative to the compounds of this invention (important fungi): a small fraction of that of the compounds herein claimed

Source: patent US4087450A, “(Polychlorophenoxy) methyl esters of thiocyanic acid” (priority 1977, dated 1978)
